PubChem BioAssay (NCI)
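Cells were grown in 96-well plates and exposed to each compound for 48 hours at five concentrations; endpoints were interpolated linearly between bracketing concentrations, or set to the highest concentration if not reached. GI50: concentration for 50% inhibition of growth. The concentration for full growth arrest is given as TGI.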

Assays:
Experiment in all cases: DTP human tumour cell line panel, 48 h
M14 melanoma = test system: M14 melanoma
OVCAR-4 ovarian = test system: OVCAR-4 ovarian
SF-295 CNS = test system: SF-295 CNS
HT29 colon = test system: HT29 colon
NCI-H460 lung = test system: NCI-H460 lung
SK-MEL-2 melanoma = test system: SK-MEL-2 melanoma
NCI-H23 lung = test system: NCI-H23 lung
OVCAR-3 ovarian = test system: OVCAR-3 ovarian
K-562 leukemia = test system: K-562 leukemia
UACC-62 melanoma = test system: UACC-62 melanoma
PC-3 prostate = test system: PC-3 prostate
SW-620 colon = test system: SW-620 colon
CAKI-1 renal = test system: CAKI-1 renal
DU-145 prostate = test system: DU-145 prostate
NCI/ADR-RES ovarian = test system: NCI/ADR-RES ovarian
HOP-62 NSCLC = test system: HOP-62 NSCLC
MOLT-4 leukemia = test system: MOLT-4 leukemia
OVCAR-8 ovarian = test system: OVCAR-8 ovarian
MCF7 breast = test system: MCF7 breast
SN12C renal = test system: SN12C renal
HOP-92 NSCLC = test system: HOP-92 NSCLC
KM12 colon = test system: KM12 colon
EKVX NSCLC = test system: EKVX NSCLC
NCI-H522 lung = test system: NCI-H522 lung
SK-MEL-5 melanoma = test system: SK-MEL-5 melanoma
786-0 renal = test system: 786-0 renal
UO-31 renal = test system: UO-31 renal
CCRF-CEM leukemia = test system: CCRF-CEM leukemia
HCT-116 colon = test system: HCT-116 colon
A549 NSCLC = test system: A549 NSCLC
BT-549 breast = test system: BT-549 breast
LOX IMVI melanoma = test system: LOX IMVI melanoma
SF-268 CNS = test system: SF-268 CNS
T-47D breast = test system: T-47D breast
SF-539 CNS = test system: SF-539 CNS
SK-OV-3 ovarian = test system: SK-OV-3 ovarian
U251 CNS = test system: U251 CNS
SK-MEL-28 melanoma = test system: SK-MEL-28 melanoma
SNB-19 CNS = test system: SNB-19 CNS
MDA-MB-435 = test system: MDA-MB-435
ACHN renal = test system: ACHN renal
HCT-15 colon = test system: HCT-15 colon
TK-10 renal = test system: TK-10 renal
MDA-MB-231 breast = test system: MDA-MB-231 breast
HCC-2998 colon = test system: HCC-2998 colon
RPMI-8226 leukemia = test system: RPMI-8226 leukemia
SNB-75 CNS = test system: SNB-75 CNS
HL-60(TB) leukemia = test system: HL-60(TB) leukemia
SR leukemia = test system: SR leukemia
HS 578T breast = test system: HS 578T breast
A498 renal = test system: A498 renal
NCI-H226 lung = test system: NCI-H226 lung
UACC-257 melanoma = test system: UACC-257 melanoma
OVCAR-5 ovarian = test system: OVCAR-5 ovarian
IGROV1 ovarian = test system: IGROV1 ovarian

[N-]=[N+]=NCCCn1c2c(c3cc4c(cc3c1=O)OCO4)C(=O)c1ccccc1-2
GI50 (M14 melanoma): 43 µM
TGI (M14 melanoma): > 100 µM
GI50 (OVCAR-4 ovarian): > 100 µM
TGI (OVCAR-4 ovarian): > 100 µM
GI50 (SF-295 CNS): 32.4 µM
TGI (SF-295 CNS): > 100 µM
GI50 (HT29 colon): > 100 µM
TGI (HT29 colon): > 100 µM
GI50 (NCI-H460 lung): 62.8 µM
TGI (NCI-H460 lung): > 100 µM
GI50 (SK-MEL-2 melanoma): 91.1 µM
TGI (SK-MEL-2 melanoma): > 100 µM
GI50 (NCI-H23 lung): 42.8 µM
TGI (NCI-H23 lung): > 100 µM
GI50 (OVCAR-3 ovarian): 71.9 µM
TGI (OVCAR-3 ovarian): > 100 µM
GI50 (K-562 leukemia): 28.7 µM
TGI (K-562 leukemia): > 100 µM
GI50 (UACC-62 melanoma): 87.3 µM
TGI (UACC-62 melanoma): > 100 µM
GI50 (PC-3 prostate): > 100 µM
TGI (PC-3 prostate): > 100 µM
GI50 (SW-620 colon): > 100 µM
TGI (SW-620 colon): > 100 µM
GI50 (CAKI-1 renal): 89.1 µM
TGI (CAKI-1 renal): > 100 µM
GI50 (DU-145 prostate): 17.5 µM
TGI (DU-145 prostate): > 100 µM
GI50 (NCI/ADR-RES ovarian): > 100 µM
TGI (NCI/ADR-RES ovarian): > 100 µM
GI50 (HOP-62 NSCLC): 39 µM
TGI (HOP-62 NSCLC): > 100 µM
GI50 (MOLT-4 leukemia): 0.0905 µM
TGI (MOLT-4 leukemia): 13.7 µM
GI50 (OVCAR-8 ovarian): 21.6 µM
TGI (OVCAR-8 ovarian): 87.3 µM
GI50 (MCF7 breast): 7.5 µM
TGI (MCF7 breast): > 100 µM
GI50 (SN12C renal): > 100 µM
TGI (SN12C renal): > 100 µM
GI50 (HOP-92 NSCLC): 64.2 µM
TGI (HOP-92 NSCLC): > 100 µM
GI50 (KM12 colon): > 100 µM
TGI (KM12 colon): > 100 µM
GI50 (EKVX NSCLC): > 100 µM
TGI (EKVX NSCLC): > 100 µM
GI50 (NCI-H522 lung): 75 µM
TGI (NCI-H522 lung): > 100 µM
GI50 (SK-MEL-5 melanoma): 3.52 µM
TGI (SK-MEL-5 melanoma): 31.3 µM
GI50 (786-0 renal): 67.7 µM
TGI (786-0 renal): > 100 µM
GI50 (UO-31 renal): > 100 µM
TGI (UO-31 renal): > 100 µM
GI50 (CCRF-CEM leukemia): 39.2 µM
TGI (CCRF-CEM leukemia): > 100 µM
GI50 (HCT-116 colon): 40.1 µM
TGI (HCT-116 colon): > 100 µM
GI50 (A549 NSCLC): 93.5 µM
TGI (A549 NSCLC): > 100 µM
GI50 (BT-549 breast): > 100 µM
TGI (BT-549 breast): > 100 µM
GI50 (LOX IMVI melanoma): 13.5 µM
TGI (LOX IMVI melanoma): > 100 µM
GI50 (SF-268 CNS): > 100 µM
TGI (SF-268 CNS): > 100 µM
GI50 (T-47D breast): > 100 µM
TGI (T-47D breast): > 100 µM
GI50 (SF-539 CNS): > 100 µM
TGI (SF-539 CNS): > 100 µM
GI50 (SK-OV-3 ovarian): > 100 µM
TGI (SK-OV-3 ovarian): > 100 µM
GI50 (U251 CNS): > 100 µM
TGI (U251 CNS): > 100 µM
GI50 (SK-MEL-28 melanoma): > 100 µM
TGI (SK-MEL-28 melanoma): > 100 µM
GI50 (SNB-19 CNS): > 100 µM
TGI (SNB-19 CNS): > 100 µM
GI50 (MDA-MB-435): 10.3 µM
TGI (MDA-MB-435): > 100 µM
GI50 (ACHN renal): 13.1 µM
TGI (ACHN renal): 86 µM
GI50 (HCT-15 colon): > 100 µM
TGI (HCT-15 colon): > 100 µM
GI50 (TK-10 renal): 42.6 µM
TGI (TK-10 renal): > 100 µM
GI50 (MDA-MB-231 breast): > 100 µM
TGI (MDA-MB-231 breast): > 100 µM
GI50 (HCC-2998 colon): > 100 µM
TGI (HCC-2998 colon): > 100 µM
GI50 (RPMI-8226 leukemia): > 100 µM
TGI (RPMI-8226 leukemia): > 100 µM
GI50 (SNB-75 CNS): 72.8 µM
TGI (SNB-75 CNS): > 100 µM

CC(=O)NS(=O)(=O)c1ccc(-n2nc(-c3ccc(Cl)cc3)cc2-c2cc(O)ccc2O)cc1
GI50 (M14 melanoma): 14 µM
TGI (M14 melanoma): 27 µM
GI50 (SF-295 CNS): 30.9 µM
TGI (SF-295 CNS): > 100 µM
GI50 (NCI-H460 lung): > 100 µM
TGI (NCI-H460 lung): > 100 µM
GI50 (SK-MEL-2 melanoma): > 100 µM
TGI (SK-MEL-2 melanoma): > 100 µM
GI50 (NCI-H23 lung): 18.6 µM
TGI (NCI-H23 lung): 32.6 µM
GI50 (OVCAR-3 ovarian): 32.6 µM
TGI (OVCAR-3 ovarian): 84.9 µM
GI50 (HL-60(TB) leukemia): 40.8 µM
TGI (HL-60(TB) leukemia): > 100 µM
GI50 (K-562 leukemia): 29.9 µM
TGI (K-562 leukemia): 96 µM
GI50 (UACC-62 melanoma): 14.5 µM
TGI (UACC-62 melanoma): 27.6 µM
GI50 (PC-3 prostate): 13.8 µM
TGI (PC-3 prostate): 30 µM
GI50 (SW-620 colon): 75 µM
TGI (SW-620 colon): > 100 µM
GI50 (CAKI-1 renal): 28.1 µM
TGI (CAKI-1 renal): 56.9 µM
GI50 (DU-145 prostate): 21.5 µM
TGI (DU-145 prostate): 47.5 µM
GI50 (SR leukemia): 39.5 µM
TGI (SR leukemia): > 100 µM
GI50 (NCI/ADR-RES ovarian): 27.2 µM
TGI (NCI/ADR-RES ovarian): 70 µM
GI50 (MOLT-4 leukemia): 87.3 µM
TGI (MOLT-4 leukemia): > 100 µM
GI50 (OVCAR-8 ovarian): 33 µM
TGI (OVCAR-8 ovarian): > 100 µM
GI50 (MCF7 breast): > 100 µM
TGI (MCF7 breast): > 100 µM
GI50 (SN12C renal): 19.6 µM
TGI (SN12C renal): 40.8 µM
GI50 (HOP-92 NSCLC): 17.1 µM
TGI (HOP-92 NSCLC): 48.4 µM
GI50 (KM12 colon): 41.1 µM
TGI (KM12 colon): > 100 µM
GI50 (EKVX NSCLC): 46.1 µM
TGI (EKVX NSCLC): > 100 µM
GI50 (NCI-H522 lung): 37 µM
TGI (NCI-H522 lung): > 100 µM
GI50 (SK-MEL-5 melanoma): 36.4 µM
TGI (SK-MEL-5 melanoma): > 100 µM
GI50 (786-0 renal): 16.1 µM
TGI (786-0 renal): 29.6 µM
GI50 (UO-31 renal): 20.5 µM
TGI (UO-31 renal): 45.6 µM
GI50 (CCRF-CEM leukemia): 5.55 µM
TGI (CCRF-CEM leukemia): > 100 µM
GI50 (A549 NSCLC): 34.9 µM
TGI (A549 NSCLC): > 100 µM
GI50 (BT-549 breast): > 100 µM
TGI (BT-549 breast): > 100 µM
GI50 (HS 578T breast): 62.2 µM
TGI (HS 578T breast): > 100 µM
GI50 (A498 renal): 24.8 µM
TGI (A498 renal): 93.4 µM
GI50 (NCI-H226 lung): 14.4 µM
TGI (NCI-H226 lung): 36.2 µM
GI50 (SF-268 CNS): 52.1 µM
TGI (SF-268 CNS): > 100 µM
GI50 (UACC-257 melanoma): 15.9 µM
TGI (UACC-257 melanoma): 45.7 µM
GI50 (SF-539 CNS): 32.4 µM
TGI (SF-539 CNS): 81.6 µM
GI50 (OVCAR-5 ovarian): 20.1 µM
TGI (OVCAR-5 ovarian): 40 µM
GI50 (MDA-MB-435): 31.6 µM
TGI (MDA-MB-435): > 100 µM
GI50 (HCT-15 colon): 13.6 µM
TGI (HCT-15 colon): 26.5 µM
GI50 (TK-10 renal): 31.7 µM
TGI (TK-10 renal): 92.6 µM
GI50 (MDA-MB-231 breast): 10.9 µM
TGI (MDA-MB-231 breast): 22.8 µM
GI50 (IGROV1 ovarian): 92.8 µM
TGI (IGROV1 ovarian): > 100 µM
GI50 (HCC-2998 colon): 20.7 µM
TGI (HCC-2998 colon): 39.7 µM
GI50 (RPMI-8226 leukemia): 21.1 µM
TGI (RPMI-8226 leukemia): 59.8 µM
